The values that follow come from patent US4430339A, “Substituted oxiranecarboxylic acids, their preparation and their use as medicaments” (Byk Gulden Lomberg Chemische Fabrik Gesellschaft mit …, priority 1980, dated 1984).

The test system of data set [1] is blood glucose concentration. Kind of data set: Determination of glucose in the blood after a single oral administration (fasted, metabolically healthy rats). The settings on record: Rattus norvegicus, read-out: Change in the blood glucose concentration (in %) in vivo (maximum, relative to the control group). Set-up: species or system Sprague-Dawley rats. How it is done: Table I reflects investigations of the effect of representative compounds according to the invention on the blood glucose concentration of fasting, metaboically healthy rats. Column A in each case gives the maximum lowering of the blood glucose concentration of rats which have been fasted (in %, relative to the control group) which is observed in the course of 6 hours after single oral administration of 0.6 mmole of substance/kg of body weight. Column B provides data relating to acute toxicity (LD50; mice, peroral administration).
Column A = maximum change in the blood glucose concentration (in %,
relative to the control animals) in vivo in rats which have been fasted a
1. Determination of glucose in the blood after a single oral administration.
Young male Sprague-Dawley rats (body weight: 150 to 200 g) are used. The animals (6 animals per dose) are kept in Makrolon cages with up to 4 animals per cage (ambient temperature: 23° C., relative atmospheric humidity: 55%, fixed day/night rhythm [12/12 hours], standard diet: Altromin®). The rats are deprived of the feed 18 hours before the first sample of blood is taken. Water is available ad libitum. Samples of blood are taken from the postorbital plexus by puncture immediately before and 2, 4 and 6 hours after administration of the substance.
After deproteinization with perchloric acid, the glucose in the blood is determined by means of the enzymatic HK/G-6-PDH method of R. Richterich [Klinische Chemie, Theorie und Praxis, (Clinical Chemistry, Theory and Practice), 3rd edition, 1971, S. Karger Verlag, Zurich-Basle, page 275]. A control group (10 animals, treated with pure solvent) is also investigated in each case for comparison.

Data set [2] is described as follows: in vivo. The settings on record: mouse, po, mice p.o., observation time 7 days, read-out: Acute toxicity LD50 (converted). The protocol: Column B provides data relating to acute toxicity (LD50; mice, peroral administration).
2. Determination of the toxicity.
Various doses of the substances (volume: 10 ml/kg) are administered orally by means of a stomach tube. The observation time is 7 days.

The mark [3] stands for this setting: fasted rats, single oral administration of 0.6 mmole/kg, maximum in the course of 6 hours.

The structures appear in SMILES notation. Like-named read-outs stand apart in the source and are kept apart here.

With `CCCCNC(=N)NC(=N)N` [Serial No. 1, Buformin, reference compound], the change in vivo at 600 µmol/kg in data set [1] (po, 6 h) was -8%.

Take `[H]/N=C(/N)N/C(=N/[H])NCCc1ccccc1` [Serial No. 2, Phenformin, reference compound]: in data set [1] (setting [3]), the change in vivo at 600 µmol/kg was -6%.

For `CCOC(=O)C1(CCCC2CCCCC2)CO1` (stereo not shown) [Serial No. 3, 2-(3-Cyclohexylpropyl)-oxirane-2-carboxylic acid ethyl ester], the change in vivo at 600 µmol/kg in data set [1] (setting [3]) is -24%. Moreover, the LD50 in data set [2] was 1400 mg/kg.

With `CCOC(=O)C1(CCCCCC2CCCCC2)CO1` (stereo not shown) [Serial No. 4, 2-(5-Cyclohexylpentyl)-oxirane-2-carboxylic acid ethyl ester], in data set [1] (setting [3]), the change in vivo at 600 µmol/kg is -48%. Further, in data set [2], the 50% lethal dose (LD50) was 520 mg/kg.

Take `CCOC(=O)C1(CCCC2CCCC2)CO1` (stereo not shown) [Serial No. 5, 2-(3-Cyclopentylpropyl)-oxirane-2-carboxylic acid ethyl ester]: the change in vivo at 600 µmol/kg in data set [1] (setting [3]) is -15%. The LD50 in data set [2] is 2400 mg/kg.

As to `CCOC(=O)C1(CCCCC2CCCC2)CO1` (stereo not shown) [Serial No. 6, 2-(4-Cyclopentylbutyl)-oxirane-2-carboxylic acid ethyl ester], in data set [1] (setting [3]), the change in vivo at 600 µmol/kg is -21%. Besides, the LD50 in data set [2] was 1600 mg/kg.

Turning to `CCOC(=O)C1(CCOCCCC2CCCCC2)CO1` (stereo not shown) [Serial No. 7, 2-[2-(3-Cyclohexylpropyloxy)-ethyl]-oxirane-2-carboxylic acid ethyl ester], the change in vivo at 600 µmol/kg in data set [1] (setting [3]) is -30%. Also, the LD50 in data set [2] is 570 mg/kg.

Regarding `CCOC(=O)C1(CCCC2CCCCCC2)CO1` (stereo not shown) [Serial No. 8, 2-(3-Cycloheptylpropyl)-oxirane-2-carboxylic acid ethyl ester], the change in vivo at 600 µmol/kg in data set [1] (setting [3]) is -22%. In addition, in data set [2], the LD50 is 790 mg/kg.

`CCOC(=O)C1(CCCCCC2CCCCCC2)CO1` (stereo not shown) [Serial No. 9, 2-(5-Cycloheptylpentyl)-oxirane-2-carboxylic acid ethyl ester]: the change in vivo at 600 µmol/kg in data set [1] (setting [3]) is -18%. The LD50 in data set [2] is 330 mg/kg.
